According to patent publication US20240307374A1, “FORMULATION OF FURIN INHIBITOR FOR INHALATION” (BP ASSET V, INC., priority 2021, published 2024):
In brackets after ≈: the same amount, converted by molar mass. Entries after “also recorded” stand apart in the source; their conditions may differ. Where two headings read alike, the source gives them in different places. Marks after values point to notes of the source that are not given here.

Legend:
Format in all cases: physicochemical
[1] = DVS (dynamic vapor sorption) moisture uptake; conditions: for Moisture Uptake (DVS): 25° C., from 0% RH to 80% RH; for form change after DVS test (XRPD): XRPD before and after DVS
Procedure: (FIG. 5). Sample weight decreased rapidly when humidity decreased from 10% to 0%, which might be caused by loss of crystalline water.
DVS was measured via a SMS (Surface Measurement Systems) DVS Intrinsic.

[2] = Equilibrium solubility in pH buffers (3.0-8.0), 20% captisol and water
Procedure: Additional solids were added into the sample to generate suspension if clear solution obtained. The suspension was equilibrated via stirring (1000 rpm). The suspension was centrifuged to obtain precipitate and supernatants.
Solubility and pH were tested for the supernatants after filtration, and isolated precipitate was tested by XRPD.
• 1. pH=3.0 buffer (50 mM HCl+KCl): Weigh 365.39 mg KCl into a 100 mL volumetric flask (VF), and add 0.1 mL 1M HCl into the VF, and dilute to volume with water. • 2. pH=4.0 buffer (50 mM citrate): Weigh 56.74 mg citric acid and 60.18 mg trisodium citrate into a 10 mL volumetric flask, and dilute to volume with water. • 3. pH=5.0 buffer (50 mM citrate) Weigh 11.12 mg citric acid and 95.38 mg trisodium citrate into a 10 mL volumetric flask, and dilute to volume with water. • 4. pH=6.0 buffer (50 mM citrate) Weigh 11.04 mg citric acid and 130.2 mg trisodium citrate into a 10 mL volumetric flask, and dilute to volume with water. • 5. pH=6.0 buffer (50 mM phosphate) Weigh 8.7 mg Na2HPO4 and 52.6 mg NaH2PO4 into a 10 mL volumetric flask, and dilute to volume with water. • 6. pH=7.0 buffer (50 mM phosphate) Weigh 23.47 mg Na2HPO4 and 43.34 mg NaH2PO4into a 10 mL volumetric flask, and dilute to volume with water. • 7. pH=8.0 buffer (50 mM phosphate) Weigh 31.64 mg Na2HPO4 and 67.18 mg NaH2PO4into a 10 mL volumetric flask, and dilute to volume with water.

[3] = Approximate solubility at RT
Procedure: Four freeform isolation experiments were performed in different solvent with different acids. Solids were obtained in DCM/HCl and CHCl3/HCl system.
Approximately 2 mg solids were added into a 3-mL glass vial. Solvents in the following table were then added stepwise (50-50-200-700[…] for each step) into the vials and stirred until the solids were dissolved or a total volume of 1 mL was reached. The solubility results were used to guide the solvent selection in polymorph formation.

[4] = Thermodynamic relationships study: slurry competition in acetone/H2O systems; conditions: RT
Procedure: Slurry competition was conducted in acetone/H2O systems with various water activities (0.0-1.0). […] Solids were separated and tested by XRPD.
To measure the solubility of freeform in acetone/H2O systems with various water activities, the above experiments were re-performed with addition of aw=0.3 acetone/H2O system. The suspension sample was centrifuged to obtain precipitate and supernatants. Solubility was tested for the supernatants after filtration, and isolated precipitate was tested by XRPD.
Solids were separated and tested by XRPD.

[5] = Solubility of freeform Type D with sugars
Procedure: The samples were sonicated for about 2 minutes, and the samples were almost clear (little solid was observed) and filtered for clear solution, pH of the solutions were 3.5. About 68.5 mg lactose and sucrose were added into the two solutions, respectively. The two samples were clear after adding sugar, and pH of the two samples remained 3.5. pH of the two solutions was adjusted to 5.1 by adding 1 M NaOH, and no solid precipitated out after pH adjustment.
The three solutions were stored under 5° C. for three days, and no solid precipitated out after cooling. The concentration and pH were tested for each sample.

[6] = Solubility profile of freeform Type D in citrate buffers; conditions: for solubility at 24 h: thermodynamic from solid, read-out: Solubility
Procedure: Additional solids were added into the sample to generate suspension if clear solution was obtained. The suspension was equilibrated via stirring (1000 rpm) for 24 hours. The suspension was centrifuged to obtain precipitate and supernatants. Solubility and pH were tested for the supernatants after filtration, and the isolated precipitate was tested by XRPD.

[7] = 20% Captisol (pH = 5.0, w/v), 24 hrs
[8] = pH = 3.0 buffer (50 mM HCl + KCl), 24 hrs
[9] = pH = 5.0 buffer (50 mM citrate), 24 hrs
[10] = pH = 6.0 buffer (50 mM citrate), 24 hrs
[11] = pH = 7.0 buffer (50 mM phosphate), 24 hrs
[12] = pH = 8.0 buffer (50 mM phosphate), 24 hrs
[13] = 30 mmol freeform Type D + 30 mmol citric acid, initial pH 3.6
[14] = 50 mmol freeform Type D + 50 mmol citric acid + ~200 mmol lactose, initial pH 5.1
[15] = 50 mmol freeform Type D + 50 mmol citric acid + ~200 mmol sucrose, initial pH 5.1

CC(=O)NCC1CCN(Cc2cc(Oc3ccc(N4CCN(CCC(=O)O)CC4)nc3)nc(-c3cc(Cl)cc(Cl)c3)c2)CC1 [Freeform Type A]
Moisture Uptake (DVS) [1]: 6.8% (from 0% RH to 80% RH)
form change after DVS test (XRPD) [1]: No form change
solubility at 24 h ([2]; 50 mM phosphate buffer, 21 °C, pH 8, aqueous buffer, thermodynamic from solid, pH = 8.0 buffer (50 mM phosphate), RT, 24 hrs, read-out: S: solubility): 20 µg/mL (≈ 0.0312 mM)
FC: form change (XRPD of precipitate) [2, 7]: N (N: solid form not changed)
pH of supernatant (final pH) [2, 7]: 7.7
S: solubility ([2]; 20% Captisol (pH = 5.0, w/v), RT, 24 hrs): 12.1 mg/mL
FC: form change (XRPD of precipitate) ([2]; H2O, 24 hrs): N (N: solid form not changed)
pH of supernatant (final pH) ([2]; H2O, 24 hrs): 6.8
form change after equilibrium in all media ([2]; all media, 24 hours): No form change
FC: form change (XRPD of precipitate) [2, 8]: N (N: solid form not changed)
pH of supernatant (final pH) [2, 8]: 6.3
S: solubility ([2]; pH = 3.0 buffer (50 mM HCl + KCl), RT, 24 hrs): 0.05 mg/mL
pH of supernatant (final pH) ([2]; pH = 4.0 buffer (50 mM citrate), 24 hrs): 4.8
S: solubility ([2]; pH = 4.0 buffer (50 mM citrate), RT, 24 hrs): >17.9^# mg/mL
FC: form change (XRPD of precipitate) [2, 9]: N (N: solid form not changed)
pH of supernatant (final pH) [2, 9]: 5.2
S: solubility ([2]; pH = 5.0 buffer (50 mM citrate), RT, 24 hrs): 3.31 mg/mL
FC: form change (XRPD of precipitate) [2, 10]: N (N: solid form not changed)
pH of supernatant (final pH) [2, 10]: 6.1
S: solubility ([2]; pH = 6.0 buffer (50 mM citrate), RT, 24 hrs): 0.18 mg/mL
FC: form change (XRPD of precipitate) [2, 11]: N (N: solid form not changed)
pH of supernatant (final pH) [2, 11]: 7.1
FC: form change (XRPD of precipitate) [2, 12]: N (N: solid form not changed)
pH of supernatant (final pH) [2, 12]: 8.0
solubility ([3]; 1,4-dioxane, organic solvent or mixture, thermodynamic from solid, 1,4-Dioxane, RT, read-out: Solubility): < 1900 µg/mL
solubility ([3]; 2-MeTHF, organic solvent or mixture, thermodynamic from solid, 2-MeTHF, RT, read-out: Solubility): < 1700 µg/mL
solubility ([3]; ACN, organic solvent or mixture, thermodynamic from solid, ACN, RT, read-out: Solubility): < 1900 µg/mL
solubility ([3]; Anisole, organic solvent or mixture, thermodynamic from solid, Anisole, RT, read-out: Solubility): < 2000 µg/mL
solubility ([3]; CHCl3, RT, solvent for freeform isolation): S < 1.2 mg/mL
solubility ([3]; CHCl3, organic solvent or mixture, thermodynamic from solid, CHCl3, RT, read-out: Solubility): < 2100 µg/mL
solubility ([3]; CPME, organic solvent or mixture, thermodynamic from solid, CPME, RT, read-out: Solubility): < 2000 µg/mL
solubility ([3]; DCM, organic solvent or mixture, thermodynamic from solid, DCM, RT, read-out: Solubility): < 1800 µg/mL
solubility ([3]; DMSO, organic solvent or mixture, thermodynamic from solid, DMSO, RT, read-out: Solubility): 17000 to 34000 µg/mL (≈ 26.5 to 53 mM)
solubility ([3]; EtOAc, organic solvent or mixture, thermodynamic from solid, EtOAc, RT, read-out: Solubility): < 2000 µg/mL
solubility ([3]; EtOH, organic solvent or mixture, thermodynamic from solid, EtOH, RT, read-out: Solubility): 7300 to 22000 µg/mL (≈ 11.4 to 34.3 mM)
solubility ([3]; IPA, organic solvent or mixture, thermodynamic from solid, IPA, RT, read-out: Solubility): 1500 to 1800 µg/mL (≈ 2.34 to 2.81 mM)
solubility ([3]; IPAc, organic solvent or mixture, thermodynamic from solid, IPAc, RT, read-out: Solubility): < 1900 µg/mL
solubility ([3]; MIBK, organic solvent or mixture, thermodynamic from solid, MIBK, RT, read-out: Solubility): < 2100 µg/mL
solubility ([3]; MTBE, organic solvent or mixture, thermodynamic from solid, MTBE, RT, read-out: Solubility): < 1900 µg/mL
solubility ([3]; MeOH, organic solvent or mixture, thermodynamic from solid, MeOH, RT, read-out: Solubility): > 40000 µg/mL
solubility ([3]; THF, organic solvent or mixture, thermodynamic from solid, THF, RT, read-out: Solubility): 4000 to 8000 µg/mL (≈ 6.23 to 12.5 mM)
solubility ([3]; Toluene, organic solvent or mixture, thermodynamic from solid, Toluene, RT, read-out: Solubility): < 2100 µg/mL
solubility ([3]; acetone, organic solvent or mixture, thermodynamic from solid, Acetone, RT, read-out: Solubility): < 1900 µg/mL
solubility ([3]; n-Heptane, organic solvent or mixture, thermodynamic from solid, n-Heptane, RT, read-out: Solubility): < 2200 µg/mL
solubility ([3]; water, thermodynamic from solid, H2O, RT, read-out: Solubility): < 2000 µg/mL

CC(=O)NCC1CCN(Cc2cc(Oc3ccc(N4CCN(CCC(=O)O)CC4)nc3)nc(-c3cc(Cl)cc(Cl)c3)c2)CC1 [Freeform Type D]
thermodynamic relationship of the forms [4]: thermodynamic form at the ambient conditions; also recorded: more stable hydrate form compared to freeform Type A
Moisture Uptake (DVS) [1]: 6.3% (from 0% RH to 80% RH)
form change after DVS test (XRPD) [1]: No form change
Concentration [5, 13]: 18110 µg/mL
End pH (24 hours) [5, 13]: 3.6
Purity [5, 13]: 99.8 Area %
Concentration [5, 14]: 26450 µg/mL
End pH (24 hours) [5, 14]: 5.1
Purity [5, 14]: 99.8 Area %
Concentration [5, 15]: 26500 µg/mL
End pH (24 hours) [5, 15]: 5.3
Purity [5, 15]: 99.8 Area %
solubility at 24 h ([6]; 50 mM citrate buffer, pH 4.89, aqueous buffer): 13200 µg/mL (≈ 20.6 mM)
form change after equilibrium in all citrate buffers (XRPD) ([6]; 10/20/50/100 mM citrate buffers, 24 hours): No form change
solubility at 24 h ([6]; aqueous buffer, 10 mM citrate buffer, buffer pH 2.88, RT, 24 hours, end pH 4.47): 8600 µg/mL (≈ 13.4 mM)
solubility at 24 h ([6]; aqueous buffer, 10 mM citrate buffer, buffer pH 3.34, RT, 24 hours, end pH 4.57): 4000 µg/mL (≈ 6.23 mM)
solubility at 24 h ([6]; aqueous buffer, 10 mM citrate buffer, buffer pH 3.89, RT, 24 hours, end pH 4.76): 3400 µg/mL (≈ 5.3 mM)
solubility at 24 h ([6]; aqueous buffer, 10 mM citrate buffer, buffer pH 4.30, RT, 24 hours, end pH 4.82): 2100 µg/mL (≈ 3.27 mM)
solubility at 24 h ([6]; aqueous buffer, 10 mM citrate buffer, buffer pH 4.90, RT, 24 hours, end pH 5.21): 700 µg/mL (≈ 1.09 mM)
solubility at 24 h ([6]; aqueous buffer, 20 mM citrate buffer, buffer pH 3.02, RT, 24 hours, end pH 4.59): 14000 µg/mL (≈ 21.8 mM)
solubility at 24 h ([6]; aqueous buffer, 20 mM citrate buffer, buffer pH 3.55, RT, 24 hours, end pH 4.69): 9800 µg/mL (≈ 15.3 mM)
solubility at 24 h ([6]; aqueous buffer, 20 mM citrate buffer, buffer pH 4.01, RT, 24 hours, end pH 4.67): 5500 µg/mL (≈ 8.57 mM)
solubility at 24 h ([6]; aqueous buffer, 20 mM citrate buffer, buffer pH 4.60, RT, 24 hours, end pH 4.91): 2300 µg/mL (≈ 3.58 mM)
solubility at 24 h ([6]; aqueous buffer, 20 mM citrate buffer, buffer pH 4.98, RT, 24 hours, end pH 5.28): 800 µg/mL (≈ 1.25 mM)
solubility at 24 h ([6]; aqueous buffer, 50 mM citrate buffer, buffer pH 3.76, RT, 24 hours, end pH 4.82): 23800 µg/mL (≈ 37.1 mM)
solubility at 24 h ([6]; aqueous buffer, 50 mM citrate buffer, buffer pH 4.70, RT, 24 hours, end pH 4.93): 4700 µg/mL (≈ 7.33 mM)
solubility at 24 h ([6]; aqueous buffer, 50 mM citrate buffer, buffer pH 5.27, RT, 24 hours, end pH 5.33): 800 µg/mL (≈ 1.25 mM)
solubility at 24 h ([6]; aqueous buffer, 100 mM citrate buffer, buffer pH 3.60, RT, 24 hours, end pH 4.92): 24300 µg/mL (≈ 37.9 mM)
solubility at 24 h ([6]; aqueous buffer, 100 mM citrate buffer, buffer pH 4.07, RT, 24 hours, end pH 4.88): 56800 µg/mL (≈ 88.5 mM)
solubility at 24 h ([6]; aqueous buffer, 100 mM citrate buffer, buffer pH 4.51, RT, 24 hours, end pH 5.03): 21200 µg/mL (≈ 33 mM)
solubility at 24 h ([6]; aqueous buffer, 100 mM citrate buffer, buffer pH 5.03, RT, 24 hours, end pH 5.16): 4400 µg/mL (≈ 6.86 mM)
solubility at 24 h ([6]; pH 4.7, aqueous buffer, 50 mM citrate buffer, buffer pH 3.23, RT, 24 hours, end pH 4.70): 33200 µg/mL (≈ 51.7 mM)
solubility at 24 h ([6]; pH 5.5, aqueous buffer, 100 mM citrate buffer, buffer pH 5.42, RT, 24 hours, end pH 5.50): 600 µg/mL (≈ 0.935 mM)
